Test results published in patent publication US20240025903A1, “Bicyclic Compounds and Uses Thereof for the Treatment of Diseases” (Athira Pharma, Inc., priority 2020, published 2024).

Columns and labels:
[1] = Parallel artificial membrane permeability assay (PAMPA); type: in vitro ADME; conditions: PBS, room temperature
Procedure: Bioavailable drugs must permeate the cellular membranes of the lining of the digestive tract. To estimate the penetrability of exemplary compounds, the in vitro parallel artificial membrane permeability assay (PAMPA) was utilized.
Test compounds must have a standard curve in the final read plate to determine partitioned concentration of each drug. A 6-point standard curve was prepared for each compound from 0 to 200 μM in phosphate-buffered saline (PBS).
Test compound solution (300 μL in PBS) was added to the donor (bottom) well of the PAMPA plate in 5 replicates and PBS vehicle (200 μL) was added to the acceptor (top) wells of appropriate wells to match the loading of the donor plate. The bottom and top of the PAMPA plates were then sandwiched together. The PAMPA plates were then incubated at room temperature for 5 hours. After incubation, 150 μL of donor solution was added to a UV compatible plate containing the corresponding standard curve. 150 μL of acceptor well solution was added adjacent to the corresponding standard curve and donor well samples for that compound. The plate was then read using a UV plate reader.
Permeability and membrane retention were then calculated based on the following formulas:
Permeability (cm/s): (Pe)(cm/s)={−ln [1−CA(t)/Ceq]}/[A*(1/VD+1/VA)*t] (equation 1) • where: • A=filter area (0.3 cm^2); • VD=donor well volume (0.3 mL); • VA=acceptor well volume (0.2 mL); • t=incubation time (seconds); • CA(t)=compound concentration in acceptor well at time t; • CD(t)=compound concentration in donor well at time t; and • Ceq=[CD(t)*VD+CA(t)*VA]/(VD+VA).
Membrane Retention (R)=1−[CD(t)*VD+CA(t)*VA]/(C0*VD) (equation 2) • where: • CD(t), VD, CA(t), and VA are as defined for equation 1, and • C0=initial concentration in donor well (200 uM).

[2] = Turbidimetric solubility assay; type: physicochemical; conditions: aqueous buffer, kinetic from dmso stock, PBS, 37° C., absorbance 620 nm
Procedure: Aqueous solubility is a critical drug property that helps to predict bioavailability. Generally, compounds with aqueous solubility <100 μg/ml are poor drugs.
To assess a compound's solubility by turbidity, test compounds were first dissolved in organic solvent (DMSO) at a concentration of 10 mM. This compound solution was then diluted in aqueous solvent (PBS) in a dilution series from […] in a 96-well assay plate. Solutions were incubated at 37° C. for 2 hours.
In wells with test compounds over their solubility limit, the compound will precipitate, effectively blocking the passage of light and thus increasing the absorbance signal of UV light at a wavelength of 620 nm. Compounds were considered insoluble at a tested concentration if turbidity raises the absorbance more than 10% above control reads.

[3] = molecular target: T1, HGF/MET system (Homo sapiens, UniProt P08581+P14210); test: Phospho-MET ELISA; type: cell-based; design: key: − indicates that the compound failed to significantly augment MET phosphorylation; + indicates maximum potency at or above 100 nM; ++ indicates maximum potency at or above 10 nM; +++ indicates maximum potency at or above 1 nM; ++++ indicates maximum potency at or above 0.1 nM; conditions: HEK293 cells, 1 ng/mL recombinant HGF, 15 minutes, pMET ELISA
T1 construct: HEK293 cells were prepared by passage into 6-well multi-plates; endogenous in cells; host or cells: HEK293
Procedure: Compounds were screened for potency towards the HGF/MET system using phospho-MET (pMET) ELISA kits (Cell Signaling). pMET levels were detected in samples having low (1 ng/mL) and high (10 ng/mL) concentrations of HGF.
HEK293 cells were prepared by passage into 6-well multi-plates and grown at 37° C. at 5% CO2 in DMEM+10% FBS until approximately 90% confluent. Cells were then starved for at least 8 hours in serum-free growth media.
Exemplary compounds were prepared in DMEM+0.1% FBS, diluted and added to treatment media with 1 ng/mL recombinant HGF protein (R&D Systems). Cells were incubated in triplicate at 37° C. and 5% CO2 for 15 minutes. Samples were then treated with 180 μL ice-cold RIPA (radioimmunoprecipitation assay) buffer and cells were lysed on ice for 15 minutes. Lysates were cleared by centrifugation at 16,000-g for 15 minutes and the supernatant was retained. Samples were normalized using a BCA assay of lysates to determine protein concentrations across the samples.
Between 50 and 100 μg total protein lysate was loaded into ELISA wells in pMET Sandwich ELISA kit (Cell Signaling Catalog #7227C), ensuring equal protein load in each well. The ELISA was processed according to manufacturer's instructions. After color developed, absorbance was read on an optical plate reader at 450 nm.
Potency measurements were determined using peak efficacy by scaling test compound dose treatments along a scale of 1-10 between 1 ng/mL and 10 ng/mL HGF doses according to the following formula: […]
where y is the normalized data-point, x is the raw data point, A is the mean HGF at 1 ng/mL, and B is the mean HGF at 10 ng/mL.

[4] = test system: MDCK cells; test: Cell scattering behavior assay; type: cell-based; design: key: − indicates that the compound failed to significantly promote cell scattering behavior; + indicates maximum potency at or above 100 nM; ++ indicates maximum potency at or above 10 nM; +++ indicates maximum potency at or above 1 nM; ++++ indicates maximum potency at or above 0.1 nM; conditions: 5 ng/mL HGF, 24 hours, normalized particle count vs HGF alone
Procedure: MDCK cells were grown under normal conditions and observed to spontaneously form tight colonies as they proliferate. MDCK cells respond to HGF treatment by moving away from each other (scattering), which is quantified to assess the amount of HGF/MET activation in the cell population. In this experiment, MDCK cells were plated in a 96-well format, treated with HGF and exemplary compounds, fluorescently stained, imaged in large fields, and scattering behavior was quantified. Quantification was determined by analyzing the number of continuous groups of cells compared to the total stained area imaged (normalized particle counts).
MDCK cells were plated at low density in black-walled imaging plates and allowed to attach overnight at 37° C. and 5% CO2 in DMEM+10% FBS. Cells were then starved to 2 hours in DMEM without FBS (“starve media”). Samples containing exemplary compounds were prepared in DMEM without FBS and included 5 ng/mL HGF protein (“treatment media”). A control curve was also prepared for each plate using HGF concentrations of 0, 5, 10, and 20 ng/mL. Starve media was replaced with treatment media and cells were incubated for 24 hours at 37° C. and 5% CO2.
After incubation, cells were fixed by replacing treatment media with cold ethanol and incubating for 20 minutes at 4° C. Cells were then rehydrated by washing with PBS and then with stain solution (fluorescent wheat germ agglutinin; WGA488 at 20 μg/mL in PBS). Cells were incubated with stain solution 30 minutes at room temperature after which stain solution was replaced with fresh PBS.
Fields of cells were imaged using an iCyte high content imager in the green wavelength. Images were converted to binary and analyzed for particle size and particle count. For the purpose of analysis, an individual cell touching no other cells or separated colonies of cells were identified as particles, and particle counts were normalized by the total signal area to account for differences in cell number. […] Compound potency was assessed by statistical increase in normalized particle count compared to HGF treatment alone.

[5] = test system: HepG2 cells; test: Cytotoxicity assay (LDH release); type: cell-based; conditions: 48 hours, 0.1 to 100 μM
Procedure: This experiment was designed to obtain a preliminary assessment of cytotoxicity.
HepG2 cells were plated in 96-well cell culture plates and allowed to attach overnight at 37° C., 5% CO2 in EMEM+10% FBS. Treatments were made in complete media (EMEM+10% FBS) and included a dilution series of test compounds from 0.1 to 100 μM. Known cytotoxin cerivastatin was used as a positive assay control and prepared at a final concentration of 0.5 μM.
Growth media was replaced with treatment media (EMEM+10% FBS containing test compound dissolved in DMSO) and cells were incubated with test compounds for 48 hours. At the end of the incubation period, supernatant media from each well was transferred to a new plate and LDH assay working solution was added. LDH assay solution undergoes a colorimetric reaction in proportion to the amount of lactate dehydrogenase (an intracellular protein that was only found in the media in the presence of lysed cells) in the media. Color reaction was quantified by measurement of absorbance at a wavelength of 490 nm.
The signal range of the assay was determined by no manipulation in a negative control treatment and full lysis of all cells in a lysis control sample. Compounds that increase the level of cytotoxicity more than 20% above negative control samples were considered cytotoxic in this assay.

T1 sequence (P08581 308-1390 limits assumed): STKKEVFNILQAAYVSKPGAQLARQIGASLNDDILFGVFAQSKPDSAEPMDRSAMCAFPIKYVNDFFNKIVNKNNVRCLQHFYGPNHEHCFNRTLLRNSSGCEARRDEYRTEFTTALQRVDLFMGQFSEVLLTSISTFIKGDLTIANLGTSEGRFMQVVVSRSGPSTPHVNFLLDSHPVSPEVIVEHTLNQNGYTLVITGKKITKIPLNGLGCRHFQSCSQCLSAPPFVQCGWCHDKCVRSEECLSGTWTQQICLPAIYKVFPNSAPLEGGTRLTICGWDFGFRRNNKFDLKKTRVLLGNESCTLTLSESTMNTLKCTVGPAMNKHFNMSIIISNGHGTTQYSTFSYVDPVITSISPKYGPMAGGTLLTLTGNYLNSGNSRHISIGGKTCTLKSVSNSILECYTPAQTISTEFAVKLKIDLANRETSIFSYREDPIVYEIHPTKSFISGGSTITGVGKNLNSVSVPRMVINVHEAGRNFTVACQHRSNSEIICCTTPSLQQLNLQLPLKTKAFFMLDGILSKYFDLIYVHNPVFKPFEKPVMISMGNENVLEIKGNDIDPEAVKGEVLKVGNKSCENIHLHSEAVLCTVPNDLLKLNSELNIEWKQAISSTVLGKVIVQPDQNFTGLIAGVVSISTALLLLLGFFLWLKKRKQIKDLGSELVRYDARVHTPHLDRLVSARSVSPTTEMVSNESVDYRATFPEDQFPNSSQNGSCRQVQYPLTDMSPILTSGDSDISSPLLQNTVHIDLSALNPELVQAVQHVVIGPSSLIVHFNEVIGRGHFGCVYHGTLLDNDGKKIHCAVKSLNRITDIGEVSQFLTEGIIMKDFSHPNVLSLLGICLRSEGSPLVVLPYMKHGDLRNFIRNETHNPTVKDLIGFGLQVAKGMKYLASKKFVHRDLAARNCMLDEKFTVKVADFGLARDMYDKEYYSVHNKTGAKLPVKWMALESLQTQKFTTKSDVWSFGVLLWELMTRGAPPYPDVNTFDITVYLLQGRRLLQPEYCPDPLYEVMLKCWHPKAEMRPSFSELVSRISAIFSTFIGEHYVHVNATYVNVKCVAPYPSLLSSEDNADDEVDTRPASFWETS
T1 sequence (P14210 32-494 limits assumed): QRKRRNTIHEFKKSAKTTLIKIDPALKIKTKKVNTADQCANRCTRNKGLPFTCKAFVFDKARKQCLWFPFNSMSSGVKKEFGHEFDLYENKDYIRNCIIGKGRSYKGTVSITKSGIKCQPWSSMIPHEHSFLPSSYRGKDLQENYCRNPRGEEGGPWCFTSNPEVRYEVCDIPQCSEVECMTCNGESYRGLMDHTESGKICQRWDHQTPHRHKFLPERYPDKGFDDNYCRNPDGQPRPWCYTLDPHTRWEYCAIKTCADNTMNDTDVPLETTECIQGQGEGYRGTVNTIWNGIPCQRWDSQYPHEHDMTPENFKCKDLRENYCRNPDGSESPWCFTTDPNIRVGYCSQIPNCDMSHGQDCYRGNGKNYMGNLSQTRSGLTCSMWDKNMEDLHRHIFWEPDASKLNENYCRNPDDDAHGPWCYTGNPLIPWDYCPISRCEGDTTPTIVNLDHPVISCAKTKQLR

| Papp at 5 h, 200 µM [1] | solubility at 2 h [2] | Potency (augmentation of MET phosphorylation) [3] | SMILES | Potency (cell scattering) [4] | Cytotoxicity [5] | Permeability ([1]; 5 hours) |
| --- | --- | --- | --- | --- | --- | --- |
|  | > 300 µM | − | CC1C(=O)N(CCO)CC2N(C(=O)c3ccc(OC(F)F)cc3)CCC(=O)N12 (stereo not drawn) [Compound 34, 1-(4-(difluoromethoxy)benzoyl)-8-(2-hydroxyethyl)-6-methylhexahydro-4H-pyrazino[1,2-a]pyrimidine-4,7(6H)-dione] | − |  |  |
|  | > 100 µM | − | CCC(C)CN1CC2N(Cc3c[nH]c4ccccc34)CCC(=O)N2C(C)C1=O (stereo not drawn) [Compound 44] | − |  |  |
|  | > 300 µM | − | C=CCCN1CC2N(Cc3ccc(OC(F)F)cc3)CCC(=O)N2C(C)C1=O (stereo not drawn) [Compound 39] | − |  |  |
|  | > 300 µM | − | CC1C(=O)N(CC2CCCC2)CC2N(C(=O)c3ccc(OC(F)F)cc3)CCC(=O)N12 (stereo not drawn) [Compound 13] | − |  |  |
|  | > 300 µM | − | CC1C(=O)N(CC2CCCC2)CC2N(C(=O)c3ccc(C(F)(F)F)cc3)CCC(=O)N12 (stereo not drawn) [Compound 15] | − |  |  |
|  | > 300 µM | − | CC(C)CN1CC2N(C(=O)c3ccc(C(F)(F)F)cc3)CCC(=O)N2C(C)C1=O (stereo not drawn) [Compound 23] | − |  |  |
|  | > 300 µM | − | CC1C(=O)N(CCc2cccs2)CC2N(C(=O)c3ccc(OC(F)F)cc3)CCC(=O)N12 (stereo not drawn) [Compound 26] | − |  |  |
|  | > 300 µM | − | CCC(C)CN1CC2N(C(=O)c3ccc(O)cc3)CCC(=O)N2[C@@H](C)C1=O (stereo partly drawn) [Compound 3a] | − |  | +++ (+++ indicates permeability below 2 × 10^−6 cm/s) |
|  | > 300 µM | − | CCCCN1CC2N(C(=O)c3ccc(C(F)(F)F)cc3)CCC(=O)N2C(C)C1=O (stereo not drawn) [Compound 21] | − |  |  |
|  | > 300 µM | − | CC(C)N1CC2N(C(=O)c3ccc(C(F)(F)F)cc3)CCC(=O)N2C(C)C1=O (stereo not drawn) [Compound 24] | − |  |  |
|  | > 100 µM | − | CC1C(=O)N(CCc2ccccc2)CC2N(C(=O)c3ccc(OC(F)F)cc3)CCC(=O)N12 (stereo not drawn) [Compound 28] | − |  |  |
|  | > 300 µM | − | CC1C(=O)N(CC2CCC2)CC2N(C(=O)c3ccc(C(F)(F)F)cc3)CCC(=O)N12 (stereo not drawn) [Compound 16] | − |  |  |
|  | > 300 µM | − | COCCN1CC2N(C(=O)c3ccc(OC(F)F)cc3)CCC(=O)N2C(C)C1=O (stereo not drawn) [Compound 32] | − |  |  |
|  | > 300 µM | − | CCCCN1CC2N(Cc3ccc(OC(F)F)cc3)CCC(=O)N2C(C)C1=O (stereo not drawn) [Compound 41] | − |  |  |
|  | > 300 µM | − | CC1C(=O)N(CCC2CCCC2)CC2N(Cc3ccc(F)cc3)CCC(=O)N12 (stereo not drawn) [Compound 46, 8-(2-cyclopentylethyl)-1-(4-fluorobenzyl)-6-methylhexahydro-4H-pyrazino[1,2-c]pyrimidine-4,7(6H)-dione] | − |  |  |
|  | > 300 µM | − | C=CCCN1CC2N(C(=O)c3ccc(OC(F)F)cc3)CCC(=O)N2C(C)C1=O (stereo not drawn) [Compound 18] | − |  |  |

| SMILES | Papp at 5 h, 200 µM [1] | solubility at 2 h [2] | Potency (augmentation of MET phosphorylation) [3] | Potency (cell scattering) [4] | Cytotoxicity [5] | Permeability ([1]; 5 hours) |
| --- | --- | --- | --- | --- | --- | --- |
| CCC(C)CN1CC2N(Cc3ccc(OC(F)F)cc3)CCC(=O)N2C(CC(=O)O)C1=O (stereo not drawn) [Compound 49, 2-(1-(4-(difluoromethoxy)benzyl)-8-(2-methylbutyl)-4,7-dioxooctahydro-2H-pyrazino[1,2-a]pyrimidin-6-yl)acetic acid] | > 2 ×10⁻⁶ cm/s | > 300 µM | ++++ (++++ indicates maximum potency at or above 0.1 nM) | ++++ (++++ indicates maximum potency at or above 0.1 nM) | ++++ (++++ indicates non-toxic at 100 μM) |  |
